pKi: −log10 of the molar value. Structures can show the parent of a compound that is named as a salt.
Each molecule was assayed against human FLAP (Homo sapiens (Human), UniProt P20292) (assay: FLAP binding assay (HTRF format)). Conditions: Table 6 (additional runs), human FLAP wild type.
Outline: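 Reported data take the mean of two different plates carrying duplicate samples and use the HTRF ratio as the measured signal.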

human FLAP, sequence (P20292 whole entry): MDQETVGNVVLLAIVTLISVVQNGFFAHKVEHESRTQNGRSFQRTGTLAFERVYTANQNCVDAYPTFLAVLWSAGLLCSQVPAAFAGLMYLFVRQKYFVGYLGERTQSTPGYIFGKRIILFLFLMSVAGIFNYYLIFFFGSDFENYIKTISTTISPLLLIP

| pKi | SMILES |
| --- | --- |
| 9.15 | CC(C)(C)NS(=O)(=O)c1ccccc1-c1ccc(-c2cnc3[nH]ccc3n2)c(F)c1 [Example 371, N-tert-Butyl-3′-fluoro-4′-(5H-pyrrolo[2,3-b]pyrazin-2-yl)biphenyl-2-sulfonamide] |
| 8.92 | O=S(=O)(c1ccccc1-c1ccc(-c2cnc3[nH]ccc3n2)c(F)c1)N1CCCCC1 [Example 374, 2-[3-Fluoro-2′-(piperidin-1-ylsulfonyl)biphenyl-4-yl)-5H-pyrrolo[2,3-b]pyrazine] |
| 8.89 | CNS(=O)(=O)c1ccccc1-c1ccc(-c2cnc3[nH]ccc3n2)c(F)c1 [Example 379, 3′-Fluoro-N-methyl-4′-(5H-pyrrolo[2,3-b]pyrazin-2-yl)biphenyl-2-sulfonamide] |
| 9.30 | O=S1(=O)CCN(S(=O)(=O)c2ccccc2-c2ccc(-c3cnc4[nH]ccc4n3)c(F)c2)CC1 [Example 382, 2-{2′-[(1,1-Dioxidothiomorpholin-4-yl)sulfonyl]-3-fluorobiphenyl-4-yl}-5H-pyrrolo[2,3-b]pyrazine] |
| 8.10 | CSc1ccc(F)cc1-c1ccc(-c2cnc3[nH]ccc3n2)c(F)c1 [Example 383] |
| 8.41 | CCSc1ccccc1-c1ccc(-c2cnc3[nH]ccc3n2)c(F)c1 [Example 384, 2-[2′-(Ethylsulfanyl)-3-fluorobiphenyl-4-yl]-5H-pyrrolo[2,3-b]pyrazine] |
| 8.74 | O=S(=O)(c1ccccc1-c1ccc(-c2cnc3c(c2)OCCN3)c(F)c1)N1CCCCC1 [Example 386, 7-[3-Fluoro-2′-(piperidin-1-ylsulfonyl)biphenyl-4-yl]-3,4-dihydro-2H-pyrido[3,2-b][1,4]oxazine] |
| 8.77 | C[C@@H](CO)NS(=O)(=O)c1ccccc1-c1ccc(-c2cnc3c(c2)OCCN3)c(F)c1 [Example 388, 4′-(3,4-Dihydro-2H-pyrido[3,2-b]l[1,4]oxazin-7-yl)-3′-fluoro-N-[(1S)-2-hydroxy-1-methylethyl]biphenyl-2-sulfonamide] |
| 7.88 | NC1CCN(S(=O)(=O)c2ccccc2-c2ccc(-c3cnc4c(c3)OCCN4)c(F)c2)CC1 [Example 389, 1-{[4′-(3,4-Dihydro-2H-pyrido[3,2-b][1,4]oxazin-7-yl)-3′-fluorobiphenyl-2-yl]sulfonyl}piperidin-4-amine] |
| 9.40 | C[C@H](CO)NS(=O)(=O)c1ccccc1-c1ccc(-c2cnc3c(c2)OCCN3)c(F)c1 [Example 390, 4′-(3,4-Dihydro-2H-pyrido[3,2-b][1,4]oxazin-7-yl)-3′-fluoro-N-[(1R)-2-hydroxy-1-methylethyl]biphenyl-2-sulfonamide] |
| 9.05 | O=S1(=O)CCN(S(=O)(=O)c2ccccc2-c2ccc(-c3cnc4c(c3)OCCN4)c(F)c2)CC1 [Example 392] |

Same assay, conditions: human FLAP wild type, Table 6 (additional runs)

| SMILES | pKi |
| --- | --- |
| Fc1cc(-c2cccnc2OCC2CC2)ccc1-c1cnc2[nH]ccc2n1 [Example 400, 2-{4-[2-(Cyclopropylmethoxy)pyridin-3-yl]-2-fluorophenyl}-5H-pyrrolo[2,3-b]pyrazine] | 7.85 |
| Nc1cnc(-c2ccc(-c3cccnc3OC3CCCCC3)cc2F)cn1 [Example 403, 5-{4-[2-(Cyclohexyloxy)pyridin-3-yl]-2-fluorophenyl}pyrazin-2-amine] | 7.16 |
| N#Cc1nc(-c2ccc(-c3ccccc3S(=O)(=O)NCCO)cc2F)cnc1N [Example 413, 4′-(5-Amino-6-cyanopyrazin-2-yl)-3′-fluoro-N-(2-hydroxyethyl)biphenyl-2-sulfonamide] | 7.73 |
| N#Cc1nc(-c2ccc(-c3ccccc3S(=O)(=O)N3CCNC(=O)C3)cc2F)cnc1N [Example 414, 3-Amino-6-{3-fluoro-2′-[(3-oxopiperazin-1-yl)sulfonyl]biphenyl-4-yl}pyrazine-2-carbontrile] | 7.18 |
| CC(C)(C)NS(=O)(=O)c1ccccc1-c1ccc(-c2cnc3ncccc3c2)c(F)c1 [Example 419, N-tert-Butyl-3′-fluoro-4′-(1,8-naphthyridin-3-yl)biphenyl-2-sulfonamide] | ~5.86 |
| CC(C)(C)NS(=O)(=O)c1ccccc1-c1ccc(-c2ccc3[nH]ccc3c2)c(F)c1 [Example 421, N-tert-Butyl-3′-fluoro-4′-(1H-indol-5-yl)biphenyl-2-sulfonamide] | 7.55 |
| CC(C)(C)NS(=O)(=O)c1ccccc1-c1ccc(-c2cnc3cc[nH]c3c2)c(F)c1 [Example 425, N-tert-Butyl-3′-fluoro-4′-(1H-pyrrolo[3,2-b]pyridin-6-yl)biphenyl-2-sulfonamide] | 8.64 |

More lines, now with the values ahead:

| pKi | SMILES |
| --- | --- |
| 7.36 | CC(C)(C)NS(=O)(=O)c1ccccc1-c1ccc(-c2ccc(N)cn2)c(F)c1 [Example 427, 4′-(5-Aminepyridin-2-yl)-N-tert-butyl-3′-fluoro-biphenyl-2-sulfonamide] |
| 8.29 | CC(C)(C)NS(=O)(=O)c1ccccc1-c1ccc(-c2cnc(N)c(F)c2)c(F)c1 [Example 430, 4′-(6-Amino-5-fluoropyridin-3-yl)-N-tert-butyl-3′-fluorobiphenyl-2-sulfonamide] |
| 9.10 | CC(C)(C)NS(=O)(=O)c1ccccc1-c1ccc(-c2cnc3c(c2)CCN3)c(F)c1 [Example 431, N-tert-Butyl-4′-(2,3-dihydro-1H-pyrrolo[2,3-b]pyridin-5-yl)-3′-fluorobiphenyl-2-sulfonamide] |
| 8.96 | COc1nc(-c2ccc(-c3ccccc3S(=O)(=O)NC(C)(C)C)cc2F)cnc1N [Example 433, 4′-(5-Amino-6-methoxypyrazin-2-yl)-N-tert-butyl-3′-fluorobiphenyl-2-sulfonamide] |
| 8.96 | CC(C)(C)NS(=O)(=O)c1ccccc1-c1ccc(-c2cnc(N)c(C#N)n2)c(F)c1 [Example 434, 4′-(5-Amino-6-cyanopyrazin-2-yl)-N-tert-butyl-3′-fluorobiphenyl-2-sulfonamide] |
| 9.15 | CC(C)(C)NS(=O)(=O)c1ccccc1-c1ccc(-c2nnc(N)s2)c(F)c1 [Example 438, 4′-(5-amino-1,3,4-thiadiazol-2-yl)-N-(tert-butyl)-3′-fluoro-[1,1′-biphenyl]-2-sulfonamide] |
| 9.05 | CC(C)(C)NS(=O)(=O)c1ccccc1-c1ccc(-c2cnc(N)c(Br)n2)c(F)c1 [Example 442, 4′-(5-Amino-6-bromopyrazin-2-yl)-N-tert-butyl-3′-fluorobiphenyl-2-sulfonamide] |
| 9.30 | Cc1nc(-c2ccc(-c3ccccc3S(=O)(=O)NC(C)(C)C)cc2F)cnc1N [Example 445, 4′-(5-Amino-6-methylpyrazin-2-yl)-N-tert-butyl-3′-fluorobiphenyl-2-sulfonamide] |
| 6.52 | Cc1nc(-c2ccc(-c3ccccc3S(N)(=O)=O)cc2F)cnc1N [Example 446, 4′-(5-Amino-6-methylpyrazin-2-yl)-3′-fluorobiphenyl-2-sulfonamide] |
| 8.62 | CC(C)(C)NS(=O)(=O)c1ccccc1-c1ccc(-c2cnc(N)c(Cl)c2)c(F)c1 [Example 451, 4′-(6-Amino-5-chloropyridin-3-yl)-N-tert-butyl-3′-fluorobiphenyl-2-sulfonamide trifluoroacetic acid salt] |
| 9.15 | CC(C)(C)NS(=O)(=O)c1ccccc1-c1ccc(-c2cnc3[nH]cc(CO)c3c2)c(F)c1 [Example 455, N-tert-Butyl-3′-fluoro-4′-[3-(hydroxymethyl)-1H-pyrrolo[2,3-b]pyridin-5-yl]biphenyl-2-sulfonamide] |
| 8.59 | Nc1cc(-c2ccc(-c3ccccc3S(=O)(=O)NC3(CO)CCCC3)cc2F)cc2cc[nH]c12 [Example 456, 4′-(7-Amino-1H-indol-5-yl)-3′-fluoro-N-[1-(hydroxymethyl)cyclopentyl]biphenyl-2-sulfonamide] |
| 8.57 | CNS(=O)(=O)c1ccccc1-c1ccc(-c2cnc3[nH]cc(CO)c3c2)c(F)c1 [Example 457, 3′-Fluoro-4′-[3-(hydroxymethyl)-1H-pyrrolo[2,3-b]pyridin-5-yl]-N-methylbiphenyl-2-sulfonamide] |
| 8.38 | CC(C)(C)NS(=O)(=O)c1ccccc1-c1ccc(-c2cc(N)c3[nH]ccc3c2)c(F)c1 [Example 458, 4′-(7-Amino-1H-indol-5-yl)-N-tert-butyl-3′-fluorobiphenyl-2-sulfonamide] |
| 8.64 | CC(C)(C)NS(=O)(=O)c1ccccc1-c1ccc(-c2cnc(N)cn2)c(F)c1F [Example 462, 4′-(5-Aminopyrazin-2-yl)-N-tert-butyl-2′,3′-difluorobipnenyl-2-sulfonamide] |
| 6.92 | Nc1cnc(-c2ccc(-c3ccccc3S(N)(=O)=O)c(F)c2F)cn1 [Example 464, 4′-(5-Aminopyrazin-2-yl)-2′,3′-difluorobiphenyl-2-sulfonamide] |
| ~6.59 | CC(C)(C)NS(=O)(=O)c1ccccc1-c1ccc(-c2cnc(N)nc2)c(F)c1F [Example 466, 4′-(2-Aminopyrimidin-5-yl)-N-tert-butyl-2′,3′-difluorobipenyl-2-sulfonamide trifluoroacetic acid salt] |
| 7.27 | Nc1cnc(-c2ccc(-c3ccc(OC(F)(F)F)cc3F)cc2F)cn1 [Example 467, 5-[2′,3-Difluoro-4′-(trifluoromethoxy)biphenyl-4-yl]pyrazin-2-amine] |
| 6.48 | Nc1cnc(-c2ccc(-c3ccccc3F)cc2F)cn1 [Example 468, 5-(2′,3-Difluorobiphenyl-4-yl)pyrazin-2-amine] |
| 6.75 | Nc1cnc(-c2ccc(-c3ccccc3Cl)cc2F)cn1 [Example 469, 5-(2′-Chloro-3-fluorobiphenyl-4-yl)pyrazin-2-amine] |
| 6.40 | Cc1ccccc1-c1ccc(-c2cnc(N)cn2)c(F)c1 [Example 470, 5-(3-Fluoro-2′-methylbiphenyl-4-yl)pyrazin-2-amine] |
| 7.25 | Nc1cnc(-c2ccc(-c3ccc(C(F)(F)F)cc3F)cc2F)cn1 [Example 471, 5-[2′,3-Difiuoro-4′-(trifluoromethyl)biphenyl-4-yl]pyrazin-2-amine] |
| 6.87 | Nc1cnc(-c2ccc(-c3ccccc3C(F)(F)F)cc2F)cn1 [Example 472, 5-[3-Fluoro-2′-(trifluoromethyl)biphenyl-4-yl]pyrazin-2-amine] |
| 7.14 | COc1ccccc1-c1ccc(-c2cnc(N)cn2)c(F)c1 [Example 473, 5-(3-Fluoro-2′-methoxybiphenyl-4-yl)pyrazin-2-amine] |

Same assay, conditions: human FLAP wild type, a calculated value of 0.000 indicates Ki less than 1 nM

| pKi | SMILES |
| --- | --- |
| > 9.00 | O=S1(=O)CCN(S(=O)(=O)c2ccccc2-c2ccc(-c3cnc4[nH]ccc4n3)c(F)c2)CC1 [Example 382, 2-{2′-[(1,1-Dioxidothiomorpholin-4-yl)sulfonyl]-3-fluorobiphenyl-4-yl}-5H-pyrrolo[2,3-b]pyrazine] |
| > 9.00 | C[C@H](CO)NS(=O)(=O)c1ccccc1-c1ccc(-c2cnc3c(c2)OCCN3)c(F)c1 [Example 390, 4′-(3,4-Dihydro-2H-pyrido[3,2-b][1,4]oxazin-7-yl)-3′-fluoro-N-[(1R)-2-hydroxy-1-methylethyl]biphenyl-2-sulfonamide] |
